# From paper PMC11483813, “Bombesin-Targeted Delivery of β-Carboline-Based Ir(III) and Ru(II) Photosensitizers for a Selective Photodynamic Therapy of Prostate Cancer” (Inorganic Chemistry, 2024)
# Residues, ends and D or L forms follow the SMILES beside them. *: point of attachment. X1 = Cn1c2ccccc2c2ccnc(-c3ccc(/C=C/C(=O)*)cn3)c21
# Legend:
# Format in all cases: cell-based, human
# [1] = test system: PC-3 cells; test: Mitochondrial membrane potential, JC-10 flow cytometry; conditions: IC50,light 4 h, blue light 1 h, control 63.0 ± 10.6%
# Method: Figure 12 Effect on mitochondria function. PC-3 cells were incubated with the indicated compounds at the corresponding IC50,light for 4 h at 37 °C and then exposed to blue light for 1 h. Cells incubated with the medium alone served as the negative control. (A) Confocal microscopy images of the cells. Nuclei were stained blue with Hoechst (λex: 350 nm; λem: 461 nm), and mitochondria were labeled with MitoTracker Red CMXRos (λex: 579 nm; λem: 599 nm). Insets show a 3× magnification of the cells. Scale bars represent 50 μm in 1× images and 20 μm in 3× images. (B) Flow cytometry analysis of the effect of the complexes on mitochondrial membrane potential. […] A decrease in the percentage of cells emitting orange fluorescence indicates a loss of MMP. p < 0.05 and ** p < 0.01 compared to control cells.
# Flow cytometry analysis using the mitochondrial specific dye JC-10 confirmed this effect. The fluorescence of JC-10 undergoes a reversible change from green to orange as MMP increases, due to the formation of JC-10 aggregates within polarized mitochondria. This property allows for the simultaneous detection of healthy and depolarized mitochondria. In control cells, orange fluorescence emission corresponding to healthy mitochondria was detected in 63.0 ± 10.6% of cells (Figure 12B). […] Furthermore, the complexes’ ability to photocatalytically oxidize NADH, a primary electron donor for the mitochondrial electron transport chain, may contribute to the mitochondrial damage.
# Flow cytometry assessment of the mitochondrial membrane depolarization: PC-3 cells were seeded on 12-well plates at a density of 100000 cells per well. 24 h later, cells were treated with the compounds as described above. Cells were subsequently harvested using trypsinization and incubated with JC-10 dye (Deltaclon) according to the manufacturer’s protocol. A Novocyte flow cytometer was employed to analyze the fluorescence emission of JC-10 in 10000 cells. Fluorescence was detected at 590 nm (FL2) to identify the percentage of cells with healthy mitochondria and at 529 nm (FL1) to determine the percentage of cells with depolarized mitochondria. Each compound was evaluated in three independent experiments, and the mean and standard deviation of the results were represented.
# [2] = test system: PC-3 cells; test: Superoxide anion generation (ROS-ID Superoxide Detection Kit); conditions: IC50,light 4 h, blue light 1 h
# Method: The photocytotoxic effects of the complexes and metallopeptides were further elucidated by evaluating their ability to photogenerate ROS at the cellular level. PC-3 cells were treated with the compounds at the respective IC50,light and irradiated with blue light. Subsequently, ROS generation was measured using the 2′,7′-dichlorodihydrofluorescein diacetate (H2DCFDA) probe, which diffuses into cells and is oxidized by ROS to produce a green fluorescent signal. […] Nevertheless, to ascertain the potential contributions of other ROS to the photocytotoxic activity, the capacity of the compounds to undergo type I PDT processes, resulting in the production of superoxide anions (O2^•–), was examined using a specific fluorescent probe that emits an orange signal upon interaction with this radical. Ir-H, Ir-Me, and Ir-BN induced the most significant increase in O2^•– levels, with fold changes of 2.4, 3.5, and 3.4, respectively, compared to control cells. […] These findings highlight the diverse mechanisms of ROS generation employed by these compounds, in particular the Ir complexes, which may contribute to their overall photocytotoxic efficacy.
# Figure 9 Intracellular ROS generation. PC-3 cells were treated with the indicated complexes and metallopeptides at their respective IC50,light for 4 h, followed by blue light irradiation for 1 h (460 nm, 24.1 J cm^–2). The elevation of general ROS (A) and superoxide anion (B) levels was determined with specific probes by flow cytometry. Bars represent the mean fold increase (±standard deviation) relative to control untreated cells from three independent experiments. * p < 0.05; ** p < 0.01, *** p < 0.001 compared to control cells.
# A similar protocol was followed to evaluate superoxide production using the ROS-ID Superoxide Detection Kit (Enzo Life Sciences) according to the manufacturer’s instructions.
# [3] = test system: PC-3 cells; test: Clonogenic assay; conditions: 5 μM, blue light irradiation, 10 days, versus control cells
# Method: The effect of the metallopeptides Ir-BN and Ru-BN as well as of the complexes Ir-H and Ru-H on the viability of PC-3 cells was next investigated through clonogenic assays, which determine the fraction of cells that survive treatment and retain the ability to generate new colonies.[56] This is a crucial feature of metastatic cancer cells, which need to proliferate in distant tissues to create secondary tumors. For this purpose, PC-3 cells were treated with the compounds at an equimolar concentration of 5 μM with or without photoactivation with blue light. Ten days later, the number of cells that survived and were able to grow and form colonies was assessed in comparison to control cells. Cells treated with cisplatin were used as a positive control.
# Figure 8 Clonogenic assay. PC-3 cells were treated with the indicated compounds at 5 μM in the dark and with blue light irradiation. Control cells were treated with the medium alone. Cisplatin was used as a positive control. Cells were incubated for 10 days to allow colony formation. (A) Images of the colonies. (B) Bar charts representing the percentage of colonies versus control cells after each treatment (mean ± SD of 3 experiments). ** p < 0.01; *** p < 0.001 versus control cells.
# PC-3 cells were seeded at a density of 100000 cells per well in 12-well plates and allowed to adhere for 24 h. The cells were treated with the compounds […] for 4 h and subsequently irradiated with blue light or kept in the dark for one hour. The treatments were then removed, and the cells were washed with PBS, harvested by trypsinization, and counted using a Novocyte flow cytometer (Agilent Technologies). Subsequently, 3000 cells were seeded in 5 cm culture dishes and incubated for 10 days to allow colonies to form. A colony was defined to consist of at least 50 cells. Cells treated with cisplatin (5 μM) were used as a positive control, and cells treated with the culture medium alone were used as a negative control. […] Each compound was evaluated in triplicate.
SMILES,population of cells emitting JC-10 orange fluorescence [1] [%],"O2•– levels, fold change versus control cells [2] [fold]",decrease in number of colonies [3]
CC(C)C[C@H](NC(=O)[C@H](CC(C)C)NC(=O)[C@H](Cc1c[nH]cn1)NC(=O)CNC(=O)[C@@H](NC(=O)[C@H](C)NC(=O)[C@H](Cc1c[nH]c2ccccc12)NC(=O)[C@H](CCC(N)=O)NC(=O)[C@H](CC(N)=O)NC(=O)CNC(=O)[C@H](CC(C)C)NC(=O)[C@H](CCCNC(=N)N)NC(=O)[C@H](CCC(N)=O)NC(=O)/C=C/c1ccc(-c2nccc3c4ccccc4n(C)c23)nc1)C(C)C)C(N)=O [Ir-BN] (X1-QRLGNQWAVGHLL-NH2),16.0 ± 9.5,3.4,34.7%
Cn1c2ccccc2c2ccnc(-c3ccc(/C=C/C(=O)O)cn3)c21.[Cl-].[Ir+3].[c-]1ccccc1-c1ccccn1.[c-]1ccccc1-c1ccccn1 [Ir-H],16.6 ± 9.2,2.4,27.3%
COC(=O)/C=C/c1ccc(-c2nccc3c4ccccc4n(C)c23)nc1.[Cl-].[Ir+3].[c-]1ccccc1-c1ccccn1.[c-]1ccccc1-c1ccccn1 [Ir-Me],21.2 ± 4.9,3.5,
Cn1c2ccccc2c2ccnc(-c3ccc(/C=C/C(=O)O)cn3)c21.[Cl-].[Cl-].[Ru+2].c1ccc(-c2ccccn2)nc1.c1ccc(-c2ccccn2)nc1 [Ru-H],28.2 ± 7.8,,No effect
